# Values of other authors in patent publication US7217431B2, “Controlled agglomeration” (LifeCycle Pharma A/S, priority 2001, dated 2007).
# Where two headings read alike, the source gives them in different places.
Structure (SMILES),"Bioavailability (Table 2, in words)",Bioavailability (in vivo)
CC(=O)OC[C@H]1O[C@@H]([S-])[C@H](OC(C)=O)[C@@H](OC(C)=O)[C@@H]1OC(C)=O.CCP(CC)CC.[Au+] [Auranofin],,Low (15–25%)
OCCN1CCN(CCCN2c3ccccc3Sc3ccc(Cl)cc32)CC1 [Perphenazine],Low,
COc1ccc(CCN2CCC(Nc3nc4ccccc4n3Cc3ccc(F)cc3)CC2)cc1 [Astemizole],Low–moderate,

# Continued, in another order:
"Bioavailability (Table 2, in words)",Structure (SMILES),Bioavailability (in vivo)
Low,C#C[C@]1(O)CC[C@H]2[C@@H]3CCC4=Cc5oncc5C[C@]4(C)[C@H]3CC[C@@]21C [Danazol],
Low,CC1CC(OC(=O)C(O)c2ccccc2)CC(C)(C)C1 (centres unmarked) [Cyclandelate],
